Test results taken from patent publication US20100298138A1, “Aminoazoline and Urea Derivatives for Combating Animal Pests” (BASF SE, priority 2007, published 2010).

Assays:
[1] = system: Cotton Aphid (Aphis gossypii); assay: whole plant or invertebrate; type: in vivo; details: 120 h
Text: • 2. Biological Examples II.1 Cotton Aphid (Aphis gossypii), Mixed Life Stages
The active compounds were formulated in 50:50 acetone: water and 100 ppm Kinetic® surfactant.
Cotton plants at the cotyledon stage (one plant per pot) were infested by placing a heavily infested leaf from the main colony on top of each cotyledon. The aphids were allowed to transfer to the host plant overnight, and the leaf used to transfer the aphids was removed. The cotyledons were dipped in the test solution and allowed to dry. After 5 days, mortality counts were made.

[2] = system: Silverleaf Whitefly (Bemisia argentifolii); assay: whole plant or invertebrate; type: in vivo; details: in Gossypium hirsutum, 72 h, 3 days after treatment, in comparison with untreated controls
Method: II.4 Silverleaf Whitefly (Bemisia argentifolii), Adult
The active compounds were formulated in 50:50 acetone:water and 100 ppm Kinetic® surfactant.
Selected cotton plants were grown to the cotyledon state (one plant per pot). The cotyledons were dipped into the test solution to provide complete coverage of the foliage and placed in a well-vented area to dry. Each pot with treated seedling was placed in a plastic cup and 10 to 12 whitefly adults (approximately 3-5 day old) were introduced. The insects were collected using an aspirator and an 0.6 cm, non-toxic Tygon® tubing (R-3603) connected to a barrier pipette tip. The tip, containing the collected insects, was then gently inserted into the soil containing the treated plant, allowing insects to crawl out of the tip to reach the foliage for feeding. The cups were covered with a reusable screened lid (150 micron mesh polyester screen PeCap from Tetko Inc). Test plants were maintained in the holding room at about 25° C. and 20-40% relative humidity for 3 days avoiding direct exposure to the fluorescent light (24 hour photoperiod) to prevent trapping of heat inside the cup. Mortality was assessed 3 days after treatment of the plants.

[3] = system: Brown Planthopper (Nilaparvata lugens); assay: whole plant or invertebrate; type: in vivo; details: in Oryza sativa, assessed 24, 48 and 72 hours after treatment, in comparison with untreated controls
Method: II.5 Brown Planthopper (Nilaparvata lugens)
The active compounds were formulated as a 20:80 acetone:water solution. Surfactant (Alkamuls EL 620) was added at the rate of 0.1% (vol/vol).
Potted rice plants of 3-4 weeks of age are sprayed with 10 ml of the test solution using air driven hand atomizer (Devillbis atomizer) at 1.7 bar. The treated plants are allowed to dry for about 1 hour and covered with Mylar cages. The plants are inoculated with 10 adults of the specie (5 male and 5 females) and kept at 25-27° C. and 50-60% humidity for 3 days. Mortality is assed after 24, 48 and 72 hours after treatment. Dead insects are usually found in the water surface. Each treatment is replicated once.

[4] = system: Mediterranean fruitfly (Ceratitis capitata); details: eggs treated with 2500 ppm; 6 days
Method: II.9 Activity against Mediterranean fruitfly (Ceratitis capitata)
50 to 80 eggs were placed into microtiterplates filled with 0.5% agar-agar and 14% diet in water. The eggs were sprayed with 5 μl of the test solution, the plates were sealed with pierced foils and kept at 27-29° C. and 75-85% humidity under fluorescent light for 6 days. Mortality was assessed on the basis of the agility of the hatched larvae. Tests were replicated 2 times.

SMILES: Clc1cccc2c1CC(NC1=NCCS1)CC2 (centres unmarked) [compound 2a, (8-Chloro-1,2,3,4-tetrahydro-naphthalen-2-yl)-(4,5-dihydro-thiazol-2-yl)-amine]
- mortality at 300 ppm [1]: ≥ 50%

SMILES: COc1ccc2c(c1)CC(NC(=S)NCCOC(=O)c1ccccc1)CC2 (centres unmarked) [compound 16, Benzoic acid 2-[3-(7-methoxy-1,2,3,4-tetrahydro-naphthalen-2-yl)-thioureido]-ethyl ester]
- mortality at 300 ppm [2]: ≥ 50%

SMILES: COc1ccc2c(c1)CC(NC(=S)NCCOC(C)=O)CC2 (centres unmarked) [compound 17, Acetic acid 2-[3-(7-methoxy-1,2,3,4-tetrahydro-naphthalen-2-yl)-thioureido]-ethyl ester]
- mortality at 300 ppm [3]: ≥ 50%
- mortality at 300 ppm [2]: ≥ 50%

SMILES: COc1ccc2c(c1)CC(NC(=S)NCCO)CC2 (centres unmarked) [compound 18]
- mortality [4]: at least 50%
